Test results as given in patent publication US20220378923A1, “BET DEGRADER” (KYOWA KIRIN CO., LTD., priority 2019, published 2022).
Read-outs that look alike come from different tables or passages of the source.

Tested on: SU-DHL-4 cells
Test: Inhibitory effect on cell viability in SU-DHL-4 cell line (Test Example 1)
Format: cell-based, human
Conditions: SU-DHL-4 cells, 72 hours, Cell Counting Kit-8, concentration showing 90% inhibition of cell viability, read-out: SU-DHL-4 Cell Viability Inhibition Rate IC90
Protocol: SU-DHL-4 cells (Code No. ACC 495, Deutsche Sammlung von Mikroorganismen and Zellkulturen GmbH; DSMZ) were cultured at 37° C. using a carbon dioxide incubator (95% air, 5% CO2) in RPMI1640 medium (Code No. 11875-093, Thermo Fisher Scientific) in which inactivated fetal bovine serum (FBS: Code No. 10099-148, Thermo Fisher Scientific) in an amount to give a final concentration of 10 vol % and penicillin/streptomycin solution (PS: […] The cells were passaged twice a week at a volume of 20-40 mL so as to maintain a cell concentration of 1×10^6 cells/mL or less. […] After seeding, the cells were precultured at 37° C. in a carbon dioxide gas incubator for 18 to 25 hours. […] At this time, the final concentration of DMSO was adjusted to be 0.1 vol %. After adding the test compound, the cells were cultured at 37° C. in a carbon dioxide gas incubator for 72 hours. Next, 0.020 mL of Cell Counting Kit-8 (Code No. CK04, DOJINDO) solution diluted 2-fold or 4-fold with phosphate buffered saline (PBS) was added to each well. Color reaction was carried out in a carbon dioxide gas incubator at 37° C. for 2 to 3 hours, and the absorbance at a wavelength of 450 nm was measured using SpectraMax 340PC (Molecular Devices). […] Absorbance of a well containing test compound • B: Absorbance of a well without addition of cells • C: Absorbance of a well without addition of test compound

CCC(=O)N1c2ccccc2[C@H](Nc2ccc(C(=O)NCCCNC(=O)C3CCC(N[C@@H]4C[C@H](C)N(C(=O)CC)c5ccccc54)CC3)cc2)C[C@@H]1C (relative stereo) [Compound 7m, 4-(((2S,4R)-2-Methyl-1-propionyl-1,2,3,4-tetrahydroquinolin-4-yl)amino)-N-(3-((1R,4r)-4-(((2S*,4R*)-2-methyl-1-propionyl-1,2,3,4-tetrahydroquinolin-4-yl)amino)cyclohexane-1-carboxamide)propyl)benzamide]
IC90: 20.3 nM

Cc1sc2c(c1C)C(c1ccc(NC(=O)CNC(=O)c3ccc(C4=N[C@@H](CC(=O)OC(C)(C)C)c5nnc(C)n5-c5sc(C)c(C)c54)cc3)cc1)=N[C@@H](CC(=O)OC(C)(C)C)c1nnc(C)n1-2 [Compound 2b, tert-Butyl 2-[(S)-4-{4-[2-(4-{(S)-6-[2-(tert-butoxy)-2-oxoethyl]-2,3,9-trimethyl-6H-thieno[3,2-f][1,2,4]triazolo[4,3-a][1,4]diazepin-4-yl}benzamide)acetamide]phenyl}-2,3,9-trimethyl-6H-thieno[3,2-f][1,2,4]triazolo[4,3-a][1,4]diazepin-6-yl]acetate]
IC90: 1.52 nM

CCC(=O)N1c2ccccc2[C@H](Nc2ccc(NC(=O)CNC(=O)C3CCC(N[C@@H]4C[C@H](C)N(C(=O)CC)c5ccccc54)CC3)cc2)C[C@@H]1C (relative stereo) [Compound 7k, (1R,4R)-4-(((2S*,4R*)-2-Methyl-1-propionyl-1,2,3,4-tetrahydroquinolin-4-yl)amino)-N-(2-((4-(((2S,4R)-2-methyl-1-propionyl-1,2,3,4-tetrahydroquinolin-4-yl)amino)phenyl)amino)-2-oxoethyl)cyclohexane-1-carboxamide]
IC90: 0.62 nM

CCC(=O)N1c2ccccc2[C@H](Nc2ccc(C(=O)NCc3nnc(C4CCN(Cc5cc(O)cc(-c6c(C)noc6C)c5)CC4)o3)cc2)C[C@@H]1C [Compound 17m, N-((5-(1-(3-(3,5-Dimethylisoxazol-4-yl)-5-hydroxybenzyl)piperidin-4-yl)-1,3,4-oxadiazol-2-yl)methyl)-4-(((2S,4R)-2-methyl-1-propionyl-1,2,3,4-tetrahydroquinolin-4-yl)amino)benzamide]
IC90 (Homo sapiens): 74.1 nM

CCC(=O)N1c2ccccc2[C@H](Nc2ccc(NC(=O)NCC(=O)NC3CCN(Cc4cc(O)cc(-c5c(C)noc5C)c4)CC3)cc2)C[C@@H]1C [Compound 17j, N-(1-(3-(3,5-Dimethylisoxazol-4-yl)-5-hydroxybenzyl)piperidin-4-yl)-2-(3-(4-(((2S,4R)-2-methyl-1-propionyl-1,2,3,4-tetrahydroquinolin-4-yl)amino)phenyl)ureido)acetamide]
IC90 (Homo sapiens): 29 nM

CCC(=O)N1c2ccccc2[C@H](Nc2ccc(NC(=O)NC3CN(C(=O)C4CCC(N[C@@H]5C[C@H](C)N(C(=O)CC)c6ccccc65)CC4)C3)cc2)C[C@@H]1C (stereo partly drawn) [Compound 9h, 1-(1-((1R,4r)-4-(((2S,4R)-2-Methyl-1-propionyl-1,2,3,4-tetrahydroquinolin-4-yl)amino)cyclohexane-1-carbonyl)azetidin-3-yl)-3-(4-(((2S,4R)-2-methyl-1-propionyl-1,2,3,4-tetrahydroquinolin-4-yl)amino)phenyl)urea]
IC90: 7.16 nM

CCC(=O)N1c2ccccc2[C@H](Nc2ccc(NC(=O)NCCNC(=O)C3CCC(N[C@@H]4C[C@H](C)N(C(=O)CC)c5ccccc54)CC3)cc2)C[C@@H]1C (relative stereo) [Compound 8n, (1R,4r)-4-(((2S*,4R*)-2-Methyl-1-propionyl-1,2,3,4-tetrahydroquinolin-4-yl)amino)-N-(2-(3-(4-(((2S,4R)-2-methyl-1-propionyl-1,2,3,4-tetrahydroquinolin-4-yl)amino)phenyl)ureido)ethyl)cyclohexane-1-carboxamide]
IC90: 1.17 nM

CCC(=O)N1c2ccccc2[C@H](Nc2ccc(C(=O)NCC3(N[C@H]4CC[C@H](N[C@@H]5C[C@H](C)N(C(=O)CC)c6ccccc65)CC4)COC3)cc2)C[C@@H]1C [Compound 7j, 4-(((2S,4R)-2-Methyl-1-propionyl-1,2,3,4-tetrahydroquinolin-4-yl)amino)-N-((3-(((1R,4R)-4-(((2S,4R)-2-methyl-1-propionyl-1,2,3,4-tetrahydroquinolin-4-yl)amino)cyclohexyl)amino)oxetan-3-yl)methyl)benzamide]
IC90: 64 nM

CCC(=O)N1c2ccccc2[C@H](Nc2ccc(-c3ccc(CNC(=O)C4CCC(N[C@@H]5C[C@H](C)N(C(=O)CC)c6ccccc65)CC4)s3)cc2)C[C@@H]1C (relative stereo) [Compound 8e, (1R,4R)-4-(((2S*,4R*)-2-Methyl-1-propionyl-1,2,3,4-tetrahydroquinolin-4-yl)amino)-N-((5-(4-(((2S,4R)-2-methyl-1-propionyl-1,2,3,4-tetrahydroquinolin-4-yl)amino)phenyl)thiophen-2-yl)methyl)cyclohexane-1-carboxamide]
IC90: 0.2 nM

CCC(=O)N1c2ccccc2[C@H](Nc2ccc(C(=O)NCCCNC(=O)c3ccc(C4=N[C@@H](CC(=O)N5CCN(CCO)CC5)c5nnc(C)n5-c5sc(C)c(C)c54)cc3)cc2)C[C@@H]1C [Compound 13f, 4-((S)-6-(2-(4-(2-Hydroxyethyl)piperazin-1-yl)-2-oxoethyl)-2,3,9-trimethyl-6H-thieno[3,2-f][1,2,4]triazolo[4,3-a][1,4]diazepin-4-yl)-N-(3-(4-(((2S,4R)-2-methyl-1-propionyl-1,2,3,4-tetrahydroquinolin-4-yl)amino)benzamide)propyl)benzamide]
IC90: 11.6 nM

CCC(=O)N1c2ccccc2[C@H](Nc2ccc(Cn3cc(C(=O)N[C@H]4CC[C@H](N[C@@H]5C[C@H](C)N(C(=O)CC)c6ccccc65)CC4)nn3)cc2)C[C@@H]1C [Compound 8f, 1-(4-(((2S,4R)-2-Methyl-1-propionyl-1,2,3,4-tetrahydroquinolin-4-yl)amino)benzyl)-N-((1R,4R)-4-(((2S,4R)-2-methyl-1-propionyl-1,2,3,4-tetrahydroquinolin-4-yl)amino)cyclohexyl)-1H-1,2,3-triazole-4-carboxamide]
IC90: 1.14 nM

CCC(=O)N1c2ccccc2[C@H](Nc2ccc(Cc3cnc4n3CCN(C(=O)C3CCC(N[C@@H]5C[C@H](C)N(C(=O)CC)c6ccccc65)CC3)C4)cc2)C[C@@H]1C (relative stereo) [Compound 7l, 1-((2S*,4R*)-2-Methyl-4-(((1r,4R)-4-(3-(4-(((2S,4R)-2-methyl-1-propionyl-1,2,3,4-tetrahydroquinolin-4-yl)amino)benzyl)-5,6,7,8-tetrahydroimidazo[1,2-a]pyrazine-7-carbonyl)cyclohexyl)amino)-3,4-dihydroquinolin-1(2H)-yl)propan-1-one]
IC90: 0.28 nM

CCC(=O)N1c2ccccc2[C@H](Nc2ccc(C(=O)NCC(=O)CNC(=O)C3CCC(N[C@@H]4C[C@H](C)N(C(=O)CC)c5ccccc54)CC3)cc2)C[C@@H]1C (relative stereo) [Compound 7r, 4-(((2S,4R)-2-Methyl-1-propionyl-1,2,3,4-tetrahydroquinolin-4-yl)amino)-N-(3-((1R,4r)-4-(((2S*,4R*)-2-methyl-1-propionyl-1,2,3,4-tetrahydroquinolin-4-yl)amino)cyclohexane-1-carboxamide)-2-oxopropyl)benzamide]
IC90: 0.38 nM

CCC(=O)N1c2ccccc2[C@H](NCCCCC(=O)NCc2nnc(-c3ccc(N[C@@H]4C[C@H](C)N(C(=O)CC)c5ccccc54)cc3)o2)C[C@@H]1C (relative stereo) [Compound 12j, 5-(((2S*,4R*)-2-Methyl-1-propionyl-1,2,3,4-tetrahydroquinolin-4-yl)amino)-N-((5-(4-(((2S,4R)-2-methyl-1-propionyl-1,2,3,4-tetrahydroquinolin-4-yl)amino)phenyl)-1,3,4-oxadiazol-2-yl)methyl)pentane amide]
IC90: 17.4 nM

CCC(=O)N1c2ccccc2[C@H](NCC23CC(C(=O)N4CC(C(=O)Nc5ccc(N[C@@H]6C[C@H](C)N(C(=O)CC)c7ccccc76)cc5)C4)(C2)C3)C[C@@H]1C (relative stereo) [Compound 17n, 1-(3-((((2S,4R)-2-Methyl-1-propionyl-1,2,3,4-tetrahydroquinolin-4-yl)amino)methyl)bicyclo[1.1.1]pentane-1-carbonyl)-N-(4-(((2S*,4R*)-2-methyl-1-propionyl-1,2,3,4-tetrahydroquinolin-4-yl)amino)phenyl)azetidine-3-carboxamide]
IC90 (Homo sapiens): 5.14 nM

CCC(=O)N1c2ccccc2[C@H](Nc2ccc(C(=O)NCCCNC(=O)c3ccc(Cn4c(CC)cc5c4CCCC5=O)cc3)cc2)C[C@@H]1C (relative stereo) [Compound 1e, 4-[(2-Ethyl-4-oxo-4,5,6,7-tetrahydro-1H-indol-1-yl)methyl]-N-[3-(4-{[(2S*,4R*)-2-methyl-1-propionyl-1,2,3,4-tetrahydroquinolin-4-yl]amino}benzamide)propyl]benzamide]
IC90: 39.8 nM
